Read-outs that look alike come from different tables or passages of the source.
How the values were obtained:
MP3 strain of D. immitis = details: cited from earlier work
[1] = system: JYD-34 isolate of Dirofilaria immitis; test: Efficacy of ivermectin and emodepside, separately and in combination, against induced Dirofilaria immitis infection in dogs (live worm counts at necropsy); details: in vivo, po
[2] = normal prophylaxis regimens, recent reports

Molecule	Efficacy against MP3 strain (MP3 strain of D. immitis; [2])	Efficacy [1]	Efficacy against MP3 strain (MP3 strain of D. immitis; in vivo)
milbemycin oxime	incomplete efficacy		
CC[C@H](C)[C@H]1O[C@]2(CC[C@@H]1C)C[C@@H]1C[C@@H](C/C=C(\C)[C@@H](O[C@H]3C[C@H](OC)[C@@H](O[C@H]4C[C@H](OC)[C@@H](O)[C@H](C)O4)[C@H](C)O3)[C@@H](C)/C=C/C=C3\CO[C@@H]4[C@H](O)C(C)=C[C@@H](C(=O)O1)[C@]34O)O2 [ivermectin oral solution, ivermectin]		Less than 50%	incomplete efficacy
CO[C@H]1C[C@H](O[C@@H]2/C(C)=C/C[C@@H]3C[C@@H](C[C@]4(CC[C@H](C)[C@@H](C5CCCCC5)O4)O3)OC(=O)[C@@H]3C=C(C)/C(=N/O)[C@H]4OC/C(=C\C=C\[C@@H]2C)[C@]43O)O[C@@H](C)[C@@H]1O [selamectin]	incomplete efficacy		
